# Data: ChEMBL document CHEMBL1201862, “PubChem BioAssay data set” (2004)
#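 Where inhibition never reached the appropriate level, the endpoint shown equals the highest concentration tested. Otherwise, values were interpolated linearly from a five-concentration, 48-hour dose response in 96-well plates. GI50 = concentration required for 50% inhibition of growth.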 Active and inactive are the calls of the source. Cut-off read from the data, not from the text of the source: active = GI50 up to about 1.1 µM and inactive = higher.
# How the values were obtained:
# Assay in all cases: NCI tumour cell line growth inhibition, 48 h
# [1] = tested on: A498
# [2] = tested on: K562
# [3] = tested on: NCI-H460
# [4] = tested on: 786-0
# [5] = tested on: EKVX
# [6] = tested on: NCI-H23
# [7] = tested on: OVCAR-8
# [8] = tested on: HT-29
# [9] = tested on: Malme-3M
# [10] = tested on: M14
# [11] = tested on: OVCAR-4
# [12] = tested on: SNB-19
# [13] = tested on: A549
# [14] = tested on: MOLT-4
# [15] = tested on: HOP-18
# [16] = tested on: CCRF-CEM
# [17] = tested on: COLO 205
# [18] = tested on: HOP-62
# [19] = tested on: KM-20L2
# [20] = tested on: KM12
# [21] = tested on: UACC-62
# [22] = tested on: SNB-78
# [23] = tested on: RPMI-8226
# [24] = tested on: LOX IMVI
# [25] = tested on: ACHN
# [26] = tested on: SK-MEL-5
# [27] = tested on: M19-MEL
# [28] = tested on: HCT-15
# [29] = tested on: SK-MEL-2
# [30] = tested on: NCI-H226
# [31] = tested on: NCI-H522
# [32] = tested on: SF-295
# [33] = tested on: SW-620
# [34] = tested on: UO-31
# [35] = tested on: OVCAR-5
# [36] = tested on: DMS-273
# [37] = tested on: U-251
# [38] = tested on: SN12C
# [39] = tested on: SK-MEL-28
# [40] = tested on: LXFL 529
# [41] = tested on: DLD-1
# [42] = tested on: TK-10
# [43] = tested on: CAKI-1
# [44] = tested on: OVCAR-3
# [45] = tested on: DMS-114
# [46] = tested on: IGROV-1
# [47] = tested on: SNB-75
# [48] = tested on: HCT-116
# [49] = tested on: HCC 2998
# [50] = tested on: HL-60
# [51] = tested on: SF-268
# [52] = tested on: UACC-257
# [53] = tested on: SK-OV-3
# [54] = tested on: HOP-92
# [55] = tested on: RXF 393
# [56] = tested on: SF-539
structure (smiles),measurement,setting,value
COC(=O)[C@@]12C(=O)C=CC(=O)C1C1C(=CC2C)OC2OC3(CCCCC3)OC21 (stereo partly drawn),GI50,[1],17.9 µM (inactive)
same,GI50,[2],6.9 µM (inactive)
same,GI50,[3],18.8 µM (inactive)
same,GI50,[4],17.5 µM (inactive)
same,GI50,[5],19.7 µM (inactive)
same,GI50,[6],19.4 µM (inactive)
same,GI50,[7],16.4 µM (inactive)
same,GI50,[8],21.6 µM (inactive)
same,GI50,[9],20.2 µM (inactive)
same,GI50,[10],17.8 µM (inactive)
same,GI50,[11],16.7 µM (inactive)
same,GI50,[12],17.7 µM (inactive)
same,GI50,[13],19.3 µM (inactive)
same,GI50,[14],6.11 µM (inactive)
same,GI50,[15],20.2 µM (inactive)
same,GI50,[16],2.52 µM (inactive)
same,GI50,[17],14.2 µM (inactive)
same,GI50,[18],19.9 µM (inactive)
same,GI50,[19],20.5 µM (inactive)
same,GI50,[20],20 µM (inactive)
same,GI50,[21],15.2 µM (inactive)
same,GI50,[22],20.6 µM (inactive)
same,GI50,[23],4.89 µM (inactive)
same,GI50,[24],20.5 µM (inactive)
same,GI50,[25],16.9 µM (inactive)
same,GI50,[26],19.3 µM (inactive)
same,GI50,[27],19.2 µM (inactive)
same,GI50,[28],13.2 µM
same,GI50,[29],19 µM (inactive)
same,GI50,[30],18.8 µM (inactive)
same,GI50,[31],9.71 µM (inactive)
same,GI50,[32],18.9 µM (inactive)
same,GI50,[33],19.3 µM (inactive)
same,GI50,[34],16.8 µM (inactive)
same,GI50,[35],14.3 µM (inactive)
same,GI50,[36],19 µM (inactive)
same,GI50,[37],17.7 µM (inactive)
same,GI50,[38],17.7 µM (inactive)
same,GI50,[39],16.9 µM (inactive)
same,GI50,[40],13.5 µM (inactive)
same,GI50,[41],18.5 µM (inactive)
same,GI50,[42],17.3 µM (inactive)
same,GI50,[43],18.2 µM (inactive)
same,GI50,[44],19.6 µM (inactive)
same,GI50,[45],15.7 µM (inactive)
same,GI50,[46],18.1 µM (inactive)
same,GI50,[47],18.9 µM (inactive)
same,GI50,[48],15.9 µM (inactive)
same,GI50,[49],14.5 µM (inactive)
same,GI50,[50],3.85 µM (inactive)
same,GI50,[51],20.9 µM (inactive)
same,GI50,[52],17.1 µM (inactive)
same,GI50,[53],18.6 µM (inactive)
CCOC(=O)C(C)Sc1nnc(COc2ccccc2OC)n1-c1ccccc1 (stereo not drawn),GI50,[1],0.268 µM (active)
same,GI50,[2],30.1 µM (inactive)
same,GI50,[3],18.3 µM (inactive)
same,GI50,[4],> 100 µM (inactive)
same,GI50,[5],> 100 µM (inactive)
same,GI50,[6],> 100 µM (inactive)
same,GI50,[7],> 100 µM (inactive)
same,GI50,[8],75.5 µM (inactive)
same,GI50,[9],> 100 µM (inactive)
same,GI50,[10],> 100 µM (inactive)
same,GI50,[11],> 100 µM (inactive)
same,GI50,[12],> 100 µM (inactive)
same,GI50,[13],> 100 µM (inactive)
same,GI50,[15],77.4 µM (inactive)
same,GI50,[16],53.7 µM (inactive)
same,GI50,[17],> 100 µM (inactive)
same,GI50,[18],> 100 µM (inactive)
same,GI50,[19],> 100 µM (inactive)
same,GI50,[20],> 100 µM (inactive)
same,GI50,[21],> 100 µM (inactive)
same,GI50,[22],> 100 µM (inactive)
same,GI50,[23],23.9 µM (inactive)
same,GI50,[24],15.7 µM (inactive)
same,GI50,[25],> 100 µM (inactive)
same,GI50,[26],> 100 µM (inactive)
same,GI50,[27],> 100 µM (inactive)
same,GI50,[54],49.1 µM (inactive)
same,GI50,[28],16.9 µM
same,GI50,[29],> 100 µM (inactive)
same,GI50,[30],> 100 µM (inactive)
same,GI50,[31],42 µM (inactive)
same,GI50,[32],> 100 µM (inactive)
same,GI50,[55],52.4 µM (inactive)
same,GI50,[33],19.2 µM (inactive)
same,GI50,[34],> 100 µM (inactive)
same,GI50,[35],> 100 µM (inactive)
same,GI50,[36],> 100 µM (inactive)
same,GI50,[37],> 100 µM (inactive)
same,GI50,[38],> 100 µM (inactive)
same,GI50,[39],> 100 µM (inactive)
same,GI50,[40],28.8 µM (inactive)
same,GI50,[41],37.2 µM (inactive)
same,GI50,[56],> 100 µM (inactive)
same,GI50,[42],> 100 µM (inactive)
same,GI50,[43],> 100 µM (inactive)
same,GI50,[44],> 100 µM (inactive)
same,GI50,[45],14.1 µM (inactive)
same,GI50,[46],> 100 µM (inactive)
same,GI50,[47],> 100 µM (inactive)
same,GI50,[48],80.7 µM (inactive)
same,GI50,[49],29.1 µM (inactive)
same,GI50,[50],32.8 µM (inactive)
same,GI50,[51],> 100 µM (inactive)
same,GI50,[52],> 100 µM (inactive)
same,GI50,[53],> 100 µM (inactive)
